Measured values published in ChEMBL document CHEMBL1150260 (J Med Chem, 2008).

Experiments:
[1] = organism: Rattus norvegicus; test: Selectivity for rat dopamine D3 receptor over rat dopamine D2L receptor
[2] = molecular target: D(3) dopamine receptor (Rattus norvegicus, UniProt P19020); test: biochemical
Description: Displacement of [3H]spiperone from rat dopamine D3 receptor expressed in HEK293 cells

[3] = molecular target: D(2) dopamine receptor (Rattus norvegicus, UniProt P61169); test: biochemical
Description: Displacement of [3H]spiperone from rat dopamine D2L receptor expressed in HEK293 cells

[4] = molecular target: T1, D(2) dopamine receptor (Homo sapiens, UniProt P14416); test: Agonist activity at human dopamine D2L receptor expressed in CHO cells assessed as stimulation of [35S]GTPgammaS binding relative to dopamine; type: functional, cell-based
[5] = system: Rattus norvegicus; test: Induction of rotational activity in subcutaneously dosed 6-hydroxydopamine unilaterally lesioned rat assessed as contralateral rotation; type: functional, organism-based
[6] = system: Rattus norvegicus; test: Induction of rotational activity in 6-hydroxydopamine unilaterally lesioned rat assessed as number of contralateral rotation at 5 umol/kg, sc after […]; type: functional
[7] = system: Rattus norvegicus; test: Induction of rotational activity in 6-hydroxydopamine unilaterally lesioned rat assessed as number of contralateral rotation at 2.5 umol/kg, sc after 8 hrs; type: functional
[8] = molecular target: T1, D(2) dopamine receptor
[9] = molecular target: D(3) dopamine receptor (Homo sapiens, UniProt P35462)
Sequence of D(3) dopamine receptor (Homo sapiens, UniProt P35462) (P35462 whole entry): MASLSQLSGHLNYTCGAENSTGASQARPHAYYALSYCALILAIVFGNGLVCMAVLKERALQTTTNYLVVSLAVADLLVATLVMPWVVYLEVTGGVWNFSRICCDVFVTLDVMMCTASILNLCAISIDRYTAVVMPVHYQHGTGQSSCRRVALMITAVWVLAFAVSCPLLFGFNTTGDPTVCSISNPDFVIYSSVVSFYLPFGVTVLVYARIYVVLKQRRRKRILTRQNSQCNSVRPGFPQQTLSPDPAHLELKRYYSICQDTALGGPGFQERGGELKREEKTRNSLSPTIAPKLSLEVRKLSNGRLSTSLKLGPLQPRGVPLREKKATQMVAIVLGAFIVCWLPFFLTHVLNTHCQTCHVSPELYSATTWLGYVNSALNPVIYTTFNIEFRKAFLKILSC
Description: Agonist activity at human dopamine D3 receptor expressed in mouse ATt-20 cells assessed as stimulation of [35S]GTPgammaS binding

T1 sequence (P14416 whole entry): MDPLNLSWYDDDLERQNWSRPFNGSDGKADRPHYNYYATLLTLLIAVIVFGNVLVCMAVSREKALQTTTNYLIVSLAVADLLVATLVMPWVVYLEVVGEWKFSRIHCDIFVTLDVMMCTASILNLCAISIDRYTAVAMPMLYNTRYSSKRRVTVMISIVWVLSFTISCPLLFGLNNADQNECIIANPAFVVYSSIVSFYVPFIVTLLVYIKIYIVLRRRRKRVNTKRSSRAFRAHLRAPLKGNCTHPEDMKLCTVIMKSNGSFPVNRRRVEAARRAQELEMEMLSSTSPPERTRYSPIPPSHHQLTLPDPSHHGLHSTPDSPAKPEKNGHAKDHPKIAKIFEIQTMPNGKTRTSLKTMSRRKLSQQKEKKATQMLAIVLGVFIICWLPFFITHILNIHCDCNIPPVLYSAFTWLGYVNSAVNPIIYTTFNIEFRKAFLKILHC
Sequence of D(2) dopamine receptor (Rattus norvegicus, UniProt P61169) (P61169 whole entry): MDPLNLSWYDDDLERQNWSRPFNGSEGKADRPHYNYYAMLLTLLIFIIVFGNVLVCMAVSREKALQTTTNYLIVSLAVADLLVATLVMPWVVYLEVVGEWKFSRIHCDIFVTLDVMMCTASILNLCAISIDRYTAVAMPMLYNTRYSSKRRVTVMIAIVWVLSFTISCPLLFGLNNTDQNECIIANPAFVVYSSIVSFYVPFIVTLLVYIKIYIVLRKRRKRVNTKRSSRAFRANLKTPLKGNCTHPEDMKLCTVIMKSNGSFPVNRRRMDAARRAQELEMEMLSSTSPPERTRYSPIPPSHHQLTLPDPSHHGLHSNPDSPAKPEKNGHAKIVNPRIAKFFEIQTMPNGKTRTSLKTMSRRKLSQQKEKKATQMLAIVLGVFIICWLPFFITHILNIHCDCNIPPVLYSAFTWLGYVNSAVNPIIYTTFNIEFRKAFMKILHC
Sequence of D(3) dopamine receptor (Rattus norvegicus, UniProt P19020) (P19020 whole entry): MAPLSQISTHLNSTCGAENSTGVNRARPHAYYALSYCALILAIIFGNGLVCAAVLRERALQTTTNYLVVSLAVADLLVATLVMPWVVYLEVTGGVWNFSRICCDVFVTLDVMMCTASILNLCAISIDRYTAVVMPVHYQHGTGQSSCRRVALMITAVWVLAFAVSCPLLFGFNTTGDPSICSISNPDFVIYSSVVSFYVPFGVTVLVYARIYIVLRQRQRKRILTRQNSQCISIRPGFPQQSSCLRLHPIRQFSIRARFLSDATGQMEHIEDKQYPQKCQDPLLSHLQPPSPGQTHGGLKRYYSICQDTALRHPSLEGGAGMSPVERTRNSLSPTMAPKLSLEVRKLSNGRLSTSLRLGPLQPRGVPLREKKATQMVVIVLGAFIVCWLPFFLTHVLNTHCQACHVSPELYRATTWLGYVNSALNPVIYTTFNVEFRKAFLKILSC

CCCN(CCN1CCN(c2ccccc2)CC1)C1CCc2ccc(O)cc2C1 (stereo not drawn)
Ratio Ki [1]: 91 | Ki [2]: 1.56 nM | Ki [3]: 142 nM

CCCN(CCN1CCN(c2ccccc2)CC1)C1CCc2nnsc2C1 (stereo not drawn)
Ratio Ki [1]: 4.66 | Ki [2]: 160 nM | Ki [3]: 746 nM

CCCN(CCN1CCN(c2ccccc2)CC1)C1CCc2nn[se]c2C1 (stereo not drawn)
Ratio Ki [1]: 4.64 | Ki [2]: 40.7 nM | Ki [3]: 189 nM

CCCN(CCN1CCN(c2ccccc2)CC1)C1CCc2c[nH]nc2C1 (stereo not drawn)
Ratio Ki [1]: 13.7 | Ki [2]: 188 nM | Ki [3]: 2570 nM

CCCN(CCCCN1CCN(c2ccccc2)CC1)C1CCc2nc(N)sc2C1 (stereo not drawn)
Ratio Ki [1]: 62 | Ki [2]: 12.4 nM | Ki [3]: 769 nM

C#CCN(CCN1CCN(c2cccc(Cl)c2Cl)CC1)C1CCc2nc(N)sc2C1 (stereo not drawn)
Ratio Ki [1]: 4.92 | Ki [2]: 7.1 nM | Ki [3]: 34.9 nM

CCCN(CCN1CCN(c2ccccc2)CC1)C1CCc2[nH]ncc2C1 (stereo not drawn)
Ratio Ki [1]: 39.3 | Ki [2]: 46.7 nM | Ki [3]: 1830 nM

CCCN(CCN1CCN(c2ccccc2)CC1)C1CCc2oncc2C1 (stereo not drawn)
Ratio Ki [1]: 5.9 | Ki [2]: 155 nM | Ki [3]: 915 nM

CCCN(CCN1CCN(c2ccccc2)CC1)C1CCc2nocc2C1 (stereo not drawn)
Ratio Ki [1]: 3.2 | Ki [2]: 254 nM | Ki [3]: 813 nM

C#CCN(CCN1CCN(c2ccccc2OC)CC1)C1CCc2nc(N)sc2C1 (stereo not drawn)
Ratio Ki [1]: 2.33 | Ki [2]: 34.8 nM | Ki [3]: 81.2 nM

CCCN(CCC)C1CCc2ccc(O)cc2C1 (stereo not drawn)
Emax [4]: 61.4%

CCCN(CCN1CCN(c2ccccc2)CC1)C1CCc2nc(N)sc2C1 (single isomer, unassigned; (+)) [listing 1 of 2 here]
Ki [2]: 44 nM | Ki [3]: 1980 nM

CCCN(CCN1CCN(c2ccccc2OC)CC1)C1CCc2nc(N)sc2C1 (single isomer, unassigned; (+)) [listing 1 of 2 here]
Ki [2]: 101 nM | Ki [3]: 243 nM

CCCN(CCN1CCN(c2ccccc2)CC1)C1CCc2nc(N)sc2C1 (single isomer, unassigned; (+)) [listing 2 of 2 here]
Ratio Ki [1]: 45

CCCN(CCN1CCN(c2ccccc2OC)CC1)C1CCc2nc(N)sc2C1 (single isomer, unassigned; (+)) [listing 2 of 2 here]
Ratio Ki [1]: 2.4

CCCN(CCN1CCN(c2ccc(-c3ccccc3)cc2)CC1)C1CCc2nc(N)sc2C1 (single isomer, unassigned; (-))
Ratio Ki [1]: 253 | Emax [4]: 119% | Activity [5]: Dose-dependent effect | Activity [6]: 3866 | Activity [7]: 2092 | EC50 [8]: 19.9 nM | EC50 [9]: 0.085 nM | Ki [2]: 0.92 nM | Ki [3]: 264 nM

CCCN(CCN1CCN(c2ccccc2OC)CC1)C1CCc2nc(N)sc2C1 (single isomer, unassigned; (-)) [listing 1 of 2 here]
Ki [2]: 7.01 nM | Ki [3]: 288 nM

CCCN(CCN1CCN(c2ccccc2OC)CC1)C1CCc2nc(N)sc2C1 (single isomer, unassigned; (-)) [listing 2 of 2 here]
Ratio Ki [1]: 41.1

CCCN(CCN1CCN(c2ccccc2)CC1)C1CCc2nc(N)sc2C1 (stereo in doubt; 6a) [listing 1 of 2 here]
Ki [2]: 5.96 nM | Ki [3]: 639 nM

CCCN(CCN1CCN(c2ccccc2)CC1)C1CCc2nc(N)sc2C1 (stereo in doubt; 6a) [listing 2 of 2 here]
Ratio Ki [1]: 107

CCCN(CCN1CCN(c2ccccc2OC)CC1)C1CCc2nc(N)sc2C1 (stereo in doubt; 6b) [listing 1 of 2 here]
Ki [2]: 5.09 nM | Ki [3]: 166 nM

CCCN(CCN1CCN(c2ccccc2OC)CC1)C1CCc2nc(N)sc2C1 (stereo in doubt; 6b) [listing 2 of 2 here]
Ratio Ki [1]: 32.6

CCCN(CCN1CCN(c2cccc(Cl)c2Cl)CC1)C1CCc2nc(N)sc2C1 (stereo in doubt; 6c) [listing 1 of 2 here]
Ki [2]: 1.82 nM | Ki [3]: 68.4 nM

CCCN(CCN1CCN(c2cccc(Cl)c2Cl)CC1)C1CCc2nc(N)sc2C1 (stereo in doubt; 6c) [listing 2 of 2 here]
Ratio Ki [1]: 37.6

CCCN(CCN1CCN(c2cccc(Cl)c2Cl)CC1)C1CCc2nc(N)sc2C1 (stereo in doubt; (+)-33) [listing 1 of 2 here]
Ki [2]: 12 nM | Ki [3]: 44.2 nM

CCCN(CCN1CCN(c2cccc(Cl)c2Cl)CC1)C1CCc2nc(N)sc2C1 (stereo in doubt; (+)-33) [listing 2 of 2 here]
Ratio Ki [1]: 3.68

CCCN(CCN1CCN(c2ccccc2)CC1)C1CCc2nc(N)sc2C1 (stereo in doubt; (-)-31) [listing 1 of 2 here]
Ki [2]: 4.15 nM | Ki [3]: 243 nM

CCCN(CCN1CCN(c2ccccc2)CC1)C1CCc2nc(N)sc2C1 (stereo in doubt; (-)-31) [listing 2 of 2 here]
Ratio Ki [1]: 58.6

CCCN(CCN1CCN(c2cccc(Cl)c2Cl)CC1)C1CCc2nc(N)sc2C1 (stereo in doubt; (-)-33) [listing 1 of 2 here]
Activity [6]: 2766 | Activity [7]: 2281 | EC50 [8]: 13.4 nM | EC50 [9]: 0.06 nM | Ki [2]: 1.8 nM | Ki [3]: 56.8 nM

CCCN(CCN1CCN(c2cccc(Cl)c2Cl)CC1)C1CCc2nc(N)sc2C1 (stereo in doubt; (-)-33) [listing 2 of 2 here]
Ratio Ki [1]: 31.6 | Emax [4]: 78.8% | Activity [5]: Dose-dependent effect
